Laboratory results: patent US11173151B2, “Substituted triazole derivatives and uses thereof” (BAYER AKTIENGESELLSCHAFT, priority 2017, dated 2021)

Columns and labels:
human V1a receptor = molecular target: T1, human V1a receptor (Homo sapiens, UniProt P37288); assay: Cellular in vitro assay for determining vasopressin receptor activity, V1a receptor cell line (CHO, aequorin luminescence); format: cell-based; details: for IC50: CHO cell line transfected with human V1a receptor, [Arg]-vasopressin at EC50 concentration, read-out: IC50 hV1a; for ratio IC50 hV2/hV1a: selectivity ratio IC50 hV2 / IC50 hV1a
T1 construct: expressed in transfected cells; host or cells: CHO K1 (ATCC), also stably transfected with a modified aequorin
Outline: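 Luminescence from reconstituted aequorin, reporting intracellular calcium release, was measured immediately after adding [Arg]-vasopressin at EC50 concentration to CHO K1 cells pretreated 10 minutes with graded compound concentrations. Inhibition gave IC50 values.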

human V2 receptor = molecular target: T2, human V2 receptor (Homo sapiens, UniProt P30518); assay: Cellular in vitro assay for determining vasopressin receptor activity, V2 receptor cell line (CHO, CRE-luciferase); format: cell-based; details: CHO cell line transfected with human V2 receptor; [Arg8]-vasopressin at EC50 concentration, 3 hours; read-out: IC50 hV2
T2 construct: expressed in transfected cells; host or cells: CHO K1 (ATCC) expressing firefly luciferase under a CRE-responsive promoter
T2 sequence (P30518 whole entry): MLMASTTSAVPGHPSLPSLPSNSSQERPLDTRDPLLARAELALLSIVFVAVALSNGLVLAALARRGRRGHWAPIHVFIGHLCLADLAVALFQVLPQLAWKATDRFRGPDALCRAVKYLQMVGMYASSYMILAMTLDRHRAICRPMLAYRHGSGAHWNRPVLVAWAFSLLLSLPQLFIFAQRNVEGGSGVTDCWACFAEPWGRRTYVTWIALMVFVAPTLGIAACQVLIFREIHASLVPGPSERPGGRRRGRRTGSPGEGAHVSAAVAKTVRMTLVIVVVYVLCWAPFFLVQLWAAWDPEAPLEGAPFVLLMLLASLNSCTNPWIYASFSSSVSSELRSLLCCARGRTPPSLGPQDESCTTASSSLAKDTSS

T1 sequence (P37288 whole entry): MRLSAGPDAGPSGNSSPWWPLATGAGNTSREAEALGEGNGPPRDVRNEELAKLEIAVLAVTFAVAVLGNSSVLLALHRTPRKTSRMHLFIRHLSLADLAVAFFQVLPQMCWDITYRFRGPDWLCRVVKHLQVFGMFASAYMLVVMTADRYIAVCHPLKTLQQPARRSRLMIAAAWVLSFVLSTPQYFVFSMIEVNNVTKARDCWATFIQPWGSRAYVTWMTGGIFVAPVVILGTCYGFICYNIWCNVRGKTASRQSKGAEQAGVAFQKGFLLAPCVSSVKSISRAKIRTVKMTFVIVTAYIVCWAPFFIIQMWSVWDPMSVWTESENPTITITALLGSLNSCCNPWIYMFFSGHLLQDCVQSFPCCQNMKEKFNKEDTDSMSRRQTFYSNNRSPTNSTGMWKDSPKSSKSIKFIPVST

Row | SMILES | IC50 (human V1a receptor) | ratio IC50 hV2/hV1a (human V1a receptor) | IC50 (human V2 receptor)
1 | O=C(Nc1cccnc1-n1cnc(Cn2nc(-c3ccc(Cl)cc3)n(C[C@H](O)C(F)(F)F)c2=O)n1)C1CC1(F)F (single isomer, unassigned) [Example 43] | 5.85 nM | 36.5 | 213 nM
2 | O=C(Nc1cccnc1-n1cnc(Cn2nc(-c3ccc(Cl)cc3)n(C[C@H](O)C(F)(F)F)c2=O)n1)C1CCS(=O)(=O)C1 (single isomer, unassigned) [Example 51] | 5 nM | 153.0 | 765 nM
3 | O=C(Nc1cccnc1-n1cnc(Cn2nc(-c3ccc(Cl)cc3)n(C[C@H](O)C(F)(F)F)c2=O)n1)C1CCS(=O)(=O)C1 (single isomer, unassigned) [Example 52] | 11.5 nM | 173.9 | 2000 nM
4 | O=C(Nc1cccnc1-n1cnc(Cn2nc(-c3ccc(Cl)cc3)n(C[C@H](O)C(F)(F)F)c2=O)n1)C1CC1F (single isomer, unassigned) [Example 55] | 3.65 nM | 190.4 | 695 nM
5 | O=C(Nc1cccnc1-n1cnc(Cn2nc(-c3ccc(Cl)cc3)n(C[C@H](O)C(F)(F)F)c2=O)n1)C1CC1F (single isomer, unassigned) [Example 56] | 4.4 nM | 92.0 | 405 nM
6 | O=C(Nc1cccnc1-n1cnc(Cn2nc(-c3ccc(Cl)cc3)n(C[C@H](O)C(F)(F)F)c2=O)n1)C1CC1F (single isomer, unassigned) [Example 60] | 4.25 nM | 208.2 | 885 nM
7 | O=C(Nc1cccnc1-n1cnc(Cn2nc(-c3ccc(Cl)cc3)n(C[C@H](O)C(F)(F)F)c2=O)n1)C1CC1F (single isomer, unassigned) [Example 61] | 4.35 nM | 111.5 | 485 nM
8 | O=C(Nc1ncccc1-n1cnc(Cn2nc(-c3ccc(Cl)cc3)n(C[C@H](O)C(F)(F)F)c2=O)n1)C1CC1F (single isomer, unassigned) [Example 77] | 12 nM | 195.8 | 2350 nM
9 | O=C(Nc1ncccc1-n1cnc(Cn2nc(-c3ccc(Cl)cc3)n(C[C@H](O)C(F)(F)F)c2=O)n1)C1CC1F (single isomer, unassigned) [Example 78] | 19.5 nM | 187.2 | 3650 nM
10 | O=C(Nc1ncccc1-n1cnc(Cn2nc(-c3ccc(Cl)cc3)n(C[C@H](O)C(F)(F)F)c2=O)n1)C1CC1F (single isomer, unassigned) [Example 86] | 4.5 nM | 311.1 | 1400 nM
11 | O=C1CCC(NC(=O)c2ccccc2-n2cnc(Cn3nc(-c4ccc(Cl)cc4)n(CC(O)C(F)(F)F)c3=O)n2)CN1 (single isomer, unassigned) [Example 192, 2-[3-({3-(4-Chlorophenyl)-5-oxo-4-[3,3,3-trifluoro-2-hydroxypropyl]-4,5-dihydro-1H-1,2,4-triazol-1-yl}methyl)-1H-1,2,4-triazol-1-yl]-N-[6-oxopiperidin-3-yl]benzamide] | 74.5 nM | 98.7 | 7350 nM
12 | O=C1CCC(NC(=O)c2ccccc2-n2cnc(Cn3nc(-c4ccc(Cl)cc4)n(CC(O)C(F)(F)F)c3=O)n2)CN1 (single isomer, unassigned) [Example 193, 2-[3-({3-(4-Chlorophenyl)-5-oxo-4-[3,3,3-trifluoro-2-hydroxypropyl]-4,5-dihydro-1H-1,2,4-triazol-1-yl}methyl)-1H-1,2,4-triazol-1-yl]-N-[6-oxopiperidin-3-yl]benzamide] | 80 nM | 38.8 | 3100 nM
13 | CC(C)(N)CNc1ccncc1-n1cnc(Cn2nc(-c3ccc(Cl)cc3)n(C[C@H](O)C(F)(F)F)c2=O)n1 [Example 1, 2-[(1-{4-[(2-Amino-2-methylpropyl)amino]pyridin-3-yl}-1H-1,2,4-triazol-3-yl)methyl]-5-(4-chlorophenyl)-4-[(2S)-3,3,3-trifluoro-2-hydroxypropyl]-2,4-dihydro-3H-1,2,4-triazol-3-one] | 1950 nM | 4.0 | 7870 nM
14 | CC(C)(O)CNc1ccncc1-n1cnc(Cn2nc(-c3ccc(Cl)cc3)n(C[C@H](O)C(F)(F)F)c2=O)n1 [Example 2, 5-(4-Chlorophenyl)-2-[(1-{4-[(2-hydroxy-2-methylpropyl)amino]pyridin-3-yl}-1H-1,2,4-triazol-3-yl)methyl]-4-[(2S)-3,3,3-trifluoro-2-hydroxypropyl]-2,4-dihydro-3H-1,2,4-triazol-3-one] | 585 nM | 0.4 | 210 nM
15 | NC1(CNc2ccncc2-n2cnc(Cn3nc(-c4ccc(Cl)cc4)n(C[C@H](O)C(F)(F)F)c3=O)n2)CC1 [Example 3, 2-{[1-(4-{[(1-Aminocyclopropyl)methyl]amino}pyridin-3-yl)-1H-1,2,4-triazol-3-yl]methyl}-5-(4-chlorophenyl)-4-[(2S)-3,3,3-trifluoro-2-hydroxypropyl]-2,4-dihydro-3H-1,2,4-triazol-3-one] | 1220 nM | 0.6 | 730 nM
16 | O=c1n(Cc2ncn(-c3cnccc3NCC3(O)CC3)n2)nc(-c2ccc(Cl)cc2)n1C[C@H](O)C(F)(F)F [Example 4, 5-(4-Chlorophenyl)-2-{[1-(4-{[(1-hydroxycyclopropyl)methyl]amino}pyridin-3-yl)-1H-1,2,4-triazol-3-yl]methyl}-4-[(2S)-3,3,3-trifluoro-2-hydroxypropyl]-2,4-dihydro-3H-1,2,4-triazol-3-one] | 115 nM | 1.1 | 125 nM
17 | O=C1CN(c2ccncc2-n2cnc(Cn3nc(-c4ccc(Cl)cc4)n(C[C@H](O)C(F)(F)F)c3=O)n2)CCN1 [Example 5, 4-{3-[3-({3-(4-Chlorophenyl)-5-oxo-4-[(2S)-3,3,3-trifluoro-2-hydroxypropyl]-4,5-dihydro-1H-1,2,4-triazol-1-yl}methyl)-1H-1,2,4-triazol-1-yl]pyridin-4-yl}piperazin-2-one] | 180 nM | 16.7 | 3000 nM
18 | O=c1n(Cc2ncn(-c3cnccc3N3CCS(=O)(=O)CC3)n2)nc(-c2ccc(Cl)cc2)n1C[C@H](O)C(F)(F)F [Example 6, 5-(4-Chlorophenyl)-2-({1-[4-(1,1-dioxidothiomorpholin-4-yl)pyridin-3-yl]-1H-1,2,4-triazol-3-yl}methyl)-4-[(2S)-3,3,3-trifluoro-2-hydroxypropyl]-2,4-dihydro-3H-1,2,4-triazol-3-one] | 71.5 nM | 35.0 | 2500 nM
19 | O=C1NCCN1CCNc1ccncc1-n1cnc(Cn2nc(-c3ccc(Cl)cc3)n(C[C@H](O)C(F)(F)F)c2=O)n1 [Example 8, 5-(4-Chlorophenyl)-2-{[1-(4-{[2-(2-oxoimidazolidin-1-yl)ethyl]amino}pyridin-3-yl)-1H-1,2,4-triazol-3-yl]methyl}-4-[(2S)-3,3,3-trifluoro-2-hydroxypropyl]-2,4-dihydro-3H-1,2,4-triazol-3-one] | 585 nM | 5.1 | 3000 nM
20 | O=c1n(Cc2ncn(-c3cnccc3N3CCC(F)(F)CC3)n2)nc(-c2ccc(Cl)cc2)n1C[C@H](O)C(F)(F)F [Example 9, 5-(4-Chlorophenyl)-2-({1-[4-(4,4-difluoropiperidin-1-yl)pyridin-3-yl]-1H-1,2,4-triazol-3-yl}methyl)-4-[(2S)-3,3,3-trifluoro-2-hydroxypropyl]-2,4-dihydro-3H-1,2,4-triazol-3-one] | 6.5 nM | 43.8 | 285 nM
21 | O=c1n(Cc2ncn(-c3cnccc3NCC(F)(F)F)n2)nc(-c2ccc(Cl)cc2)n1C[C@H](O)C(F)(F)F [Example 10, 5-(4-Chlorophenyl)-2-[(1-{4-[(2,2,2-trifluoroethyl)amino]pyridin-3-yl}-1H-1,2,4-triazol-3-yl)methyl]-4-[(2S)-3,3,3-trifluoro-2-hydroxypropyl]-2,4-dihydro-3H-1,2,4-triazol-3-one] | 235 nM | 1.9 | 445 nM
22 | O=c1n(Cc2ncn(-c3cnccc3NCCC(F)(F)F)n2)nc(-c2ccc(Cl)cc2)n1C[C@H](O)C(F)(F)F [Example 11, 5-(4-Chlorophenyl)-4-[(2S)-3,3,3-trifluoro-2-hydroxypropyl]-2-[(1-{4-[(3,3,3-trifluoropropyl)amino]pyridin-3-yl}-1H-1,2,4-triazol-3-yl)methyl]-2,4-dihydro-3H-1,2,4-triazol-3-one] | 958 nM | 0.4 | 410 nM
23 | CC(F)(F)CNc1ccncc1-n1cnc(Cn2nc(-c3ccc(Cl)cc3)n(C[C@H](O)C(F)(F)F)c2=O)n1 [Example 12, 5-(4-Chlorophenyl)-2-[(1-{4-[(2,2-difluoropropyl)amino]pyridin-3-yl}-1H-1,2,4-triazol-3-yl)methyl]-4-[(2S)-3,3,3-trifluoro-2-hydroxypropyl]-2,4-dihydro-3H-1,2,4-triazol-3-one] | 727 nM | 0.5 | 370 nM
24 | CC1(C)CN(c2ccncc2-n2cnc(Cn3nc(-c4ccc(Cl)cc4)n(C[C@H](O)C(F)(F)F)c3=O)n2)CCN1 [Example 14, 5-(4-Chlorophenyl)-2-({1-[4-(3,3-dimethylpiperazin-1-yl)pyridin-3-yl]-1H-1,2,4-triazol-3-yl}methyl)-4-[(2S)-3,3,3-trifluoro-2-hydroxypropyl]-2,4-dihydro-3H-1,2,4-triazol-3-one] | 278 nM | 19.2 | 5330 nM
